{"source": "patent US9669005B2", "about": "“Use of naringenin in preparing drugs for preventing and/or treatment abdominal aortic aneurysm” (priority 2013, dated 2017)", "assay_type_in_all_cases": "in vivo", "key": {"[1]": {"test_system": "aortic aneurysms in angiotensin II induced ApoE knockout mice", "test": "Formed aortic aneurysms, ApoE knockout mice, second round of angiotensin II submerging pump with naringenin gavage", "protocol": "In addition, we used the method of angiotensin II subcutaneous submerging pump for 28 days (1,000 ng/kg/min), to induce abdominal aortic aneurysms on 20 weeks of male ApoE knockout mice (totally 40 mice) and used ultrasound to detect the diameters of the abdominal aortas. The diameter greater than 50% of diameter of adjacent blood vessel was used as a standard of the onset of an aortic aneurysm, and 28 mice suffered from aortic aneurysms 28 days later.\nAngiotensin II submerging pump was continuously given to all the mice for 28 days. […] In the mice which had suffered from aortic aneurysms previously, 4 mice in the 14 mice by water gavage died from fracture of aortic aneurysms, the other 10 survived mice all suffered from serious aortic aneurysms (the average diameter reaches 3.00±0.58 mm)."}, "[2]": {"test": "Biochemical indexes, body weight and blood pressure of angiotensin II induced ApoE-/- mice", "conditions": "naringenin 50 mg/kg gavage 28 days", "protocol": "Firstly, 16 weeks of male ApoE^−/− mice were randomly divided into two groups, control group (n=16) and naringenin group (n=15), respectively. And then they were anesthetized by 0.1% pentobarbital sodium, and mini pumps (model 2004, Alzet, Cupertino, Calif.) were subcutaneously submerged; angiotensin II (Sigma-Aldrich, St. Louis, Mo.) dissolved with normal saline was added to the pump, such that drugs can be continuously administrated for 4 weeks at a dosage of 1000 ng/kg/min. From the first day after surgery, gavage was daily performed to mice at constant time points, water gavage in control group, and naringenin gavage (50 mg/kg) in naringenin group. Materials were removed 28 days after gavage. Blood pressure of the mice was measured by tail cuff method with BP-89A sphygmomanometer (Beijing Softron Biotechnology Co., Ltd.), and the mice were weighted. Blood was drawn in inner canthus of the mice, and after centrifuged for 10 minutes at 6000 rotations, supernatant was removed and the blood fat levels of the mice were measured."}, "[3]": {"test_system": "abdominal aortic aneurysms in C57BL/6J mice with CaPO4 daubed infrarenal arteries", "test": "Abdominal aortic aneurysm model induced by CaPO4 daubed infrarenal aortas, naringenin or doxycycline gavage", "conditions": "CaPO4 daubed C57BL/6 mice, daily gavage 7 days", "protocol": "12-week old of male C57BL/6 mice were anesthetized via intraperitoneal injection of 0.1% pentobarbital sodium (injection according to body weight, […]). Infrarenal abdominal aortas were separated, and the separated infrarenal abdominal aortas were packaged by gauze (1 cm in width×3 cm in length) soaked in 0.5 M CaCl2 solution. After 10 minutes, the gauze was removed, gauze soaked in PBS was instead used to package the blood vessel for 5 min. CaCl2+and PO4^−3 in PBS can form CaPO4 crystal, that is, corresponding to daubing CaPO4 to the blood vessel. After packaging the blood vessel with gauze soaked in NaCl for 10 minutes, gauze soaked in PBS is instead used for 5 min, serving as NaCl daubed control group.\nGavage was started at the first day after surgery, and water, naringenin (50 mg/kg) (Sigma-Aldrich, St. Louis, Mo.) or doxycycline (100 mg/kg) (Sigma-Aldrich, St. Louis, Mo.) gavage were given on mice daily. Materials were removed from the mice 7 days after gavage. Mice were weighed, and blood was drawn from inner canthus by capillary, after centrifuged for 10 minutes at 6000 rotations, the supernatant was removed and blood fat was measured (kit is purchased from BIOSINO company). Then perfusion and washing were performed on mice using PBS. Blood vessels were separated, and four blood vessels were randomly chosen for each group for photographing. The results were shown in FIG. 1, wherein, NaCl was the group of daubing NaCl (n=11), CaPO4 was the group of daubing CaPO4 plus water feed (n=12), CaPO4+NGN was the group of daubing CaPO4 μlus naringenin gavage (n=11), and CaPO4+Dox was the group of daubing CaPO4 μlus doxycycline gavage (n=11).\nThe blood vessels were sliced, and the change of the diameters in infrarenal abdominal aortas of mice were identified by H.E. staining. […] The data in FIG. 2A were an average value±standard deviation.\nThe fracture degree of elastic lamina is also an index showing the severity of abdominal aortic aneurysms. The degradation of elastic lamina is divided into four grades. The first grade means that the degradation of elastic lamina is less than 25%, with the second grade of 25%-50%, the third grade of 50%-75%, and the fourth grade means the fracture is more than 75%. We used Gomori staining to identify the fracture situation of elastic lamina of infrarenal abdominal aortas of mice. […] The data in FIG. 2B were an average value±standard deviation."}, "metalloproteinase NMP-9": {"test_system": "metalloproteinase NMP-9", "test": "Gelatin zymography, ApoE knockout mice after second round of angiotensin II", "conditions": "abdominal aortas, naringenin gavage, FIG. 10D", "protocol": "[…] Blood vessels were cultured for 24 hours using 0.5 ml serum-free medium with high glucose. After the cultured supernatant protein was quantified, mercaptoethanol-free protein sample loading buffer was added, cryopreserved at −80° C. Water was used to prepare gelatin (Sigma-Aldrich, St. Louis, Mo.) into a concentration of 10 mg/ml, which was added to separation gel of protein electrophoresis according to the proportion of 1:10, causing the final concentration of gelatin as 1 mg/ml. Electrophoresis was performed in a voltage of 80V at 4° C. The gel was put into 0.25% Trixon-100 solution, and washing was performed twice in 30 minutes. And then the gelatin was added to incubation solution (50 mM Tris, 0.2M NaCl, 5 mM CaCl2, 0.02% sodium azide), incubated for 24-48 hours at 37° C. Incubated gel was put into Coomassie brilliant blue to stain for 1-2 hours at room temperature, washed for 30 minutes with a solution having 30% methanol and 10% glacial acetic acid, a solution having 20% methanol and 10% glacial acetic acid, and a solution having 10% methanol and 5% glacial acetic acid, respectively, and then analyzed with Odyssey infrared fluorescence scanning system (LI-COR Biosciences, Lincoln, Nebr.). Both NMP-2 and NMP-9 are gelatinases, and can degrade gelatin; the places where gelatin is degraded are white, and other places are still black. […]"}, "[4]": {"test_system": "inflammatory cell (macrophage and leukocyte) in adventitia", "test": "Immunofluorescent staining of inflammatory cells (Mac3, CD45), angiotensin II model", "conditions": "AngII ApoE-/- mice; naringenin gavage vs water; FIG. 7A", "description": "CD45 and Mac3 were results of immunofluorescent staining on […]."}, "[5]": {"conditions": "AngII 1000 ng/kg/min ApoE-/- mice"}}}
{"molecule": "O=C1C[C@@H](c2ccc(O)cc2)Oc2cc(O)cc(O)c21", "note": "[naringenin]", "values": [{"measurement": "survival after the second round of angiotensin II", "setting": "[1]; ApoE knockout mice with previously formed aneurysms, 14 mice, naringenin gavage, 4 of 14 died in water group", "value": "all normally survived"}, {"measurement": "maximum diameter of the blood vessels (abdominal aorta, ultrasound)", "setting": "[1]; ApoE knockout mice with previously formed aneurysms, naringenin gavage, second AngII round, water group 3.00±0.58", "value": "1.62±0.45", "unit": "mm"}, {"measurement": "number of mice in which aortic aneurysms were observed", "setting": "[1]; ApoE knockout mice with previously formed aneurysms, of 14 mice, naringenin gavage, second AngII round 28 days", "value": 5}, {"measurement": "incidence rate of aortic aneurysms", "setting": "[1]; ApoE knockout mice without aneurysm after first AngII round, 6 mice, second AngII round 28 days with naringenin gavage, control 50%", "value": 16, "unit": "%"}, {"measurement": "Body weight", "setting": "[2]; [5]", "value": "28.9 ± 2.03", "unit": "g"}, {"measurement": "Cholesterol", "setting": "[2]; [5]", "value": "8.46 ± 2.45", "unit": "mmol"}, {"measurement": "High density lipoprotein", "setting": "[2]; [5]", "value": "56.5 ± 5.97", "unit": "mg/deciliter"}, {"measurement": "Low density lipoprotein", "setting": "[2]; [5]", "value": "44.1 ± 15.9", "unit": "mg/deciliter"}, {"measurement": "Triglyceride", "setting": "[2]; [5]", "value": "0.69 ± 0.35", "unit": "mmol"}, {"measurement": "Blood pressure", "setting": "[2]; AngII 1000 ng/kg/min ApoE-/- mice, tail cuff method", "value": "136.6 ± 14.27", "unit": "mmHg"}, {"measurement": "blood pressure and body weight", "setting": "[2]; AngII ApoE-/- mice", "value": "does not have an effect"}, {"measurement": "levels of cholesterol, triglyceride, and low density lipoprotein", "setting": "[2]; AngII ApoE-/- mice", "value": "reduces"}, {"measurement": "fracture of elastic lamina of infrarenal abdominal aortas (Gomori staining)", "setting": "[3]; FIG. 2B", "value": "reverse the effect of CaPO4"}, {"measurement": "diameters of infrarenal abdominal aortas (H.E. staining)", "setting": "[3]; naringenin 50 mg/kg, doxycycline 100 mg/kg, average ± SD, CaPO4 + water 1.40±0.19, NaCl 0.77±0.06", "value": "1.03±0.18", "unit": "mm"}, {"measurement": "incidence rate and degree of bulge of blood vessels at infrarenal site", "setting": "[3]; naringenin 50 mg/kg, doxycycline 100 mg/kg, vascular photos FIG. 1", "value": "reduce the incidence rate and degree of bulge"}, {"measurement": "activity of metalloproteinase NMP-9 (gelatin zymography)", "setting": "metalloproteinase NMP-9", "value": "significantly inhibit"}, {"measurement": "infiltration of inflammatory cell (macrophage and leukocyte) in adventitia", "setting": "[4]", "value": "significantly reduce"}]}
